Data as given in PMC7614683, “A small molecule PI3Kα activator for cardioprotection and neuroregeneration” (Nature, 2023).

Tests used:
[1] = biological target: T1, TGFBR1 (ALK5) (Homo sapiens, UniProt P36897); experiment: SelectScreen LanthaScreen Binding; settings: 1000 nM
T1 sequence (P36897 34-503): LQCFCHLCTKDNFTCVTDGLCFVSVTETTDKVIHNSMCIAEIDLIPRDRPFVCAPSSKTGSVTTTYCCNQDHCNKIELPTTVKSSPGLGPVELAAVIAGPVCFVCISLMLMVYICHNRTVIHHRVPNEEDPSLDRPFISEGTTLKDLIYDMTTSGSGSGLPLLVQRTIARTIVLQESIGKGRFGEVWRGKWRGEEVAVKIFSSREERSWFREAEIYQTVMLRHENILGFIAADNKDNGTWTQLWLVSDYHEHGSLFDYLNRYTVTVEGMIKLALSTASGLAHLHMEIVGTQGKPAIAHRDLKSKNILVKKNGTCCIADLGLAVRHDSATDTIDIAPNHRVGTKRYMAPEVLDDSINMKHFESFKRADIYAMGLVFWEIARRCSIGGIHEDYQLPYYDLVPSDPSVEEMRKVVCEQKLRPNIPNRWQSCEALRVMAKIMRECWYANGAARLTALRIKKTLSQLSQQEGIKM
Description: (§1) 133 protein kinases and 7 lipid kinases were counterscreened, with 1938 used at 1 μM, using the Adapta, Lantha and Z-LYTE assays (SelectScreen Kinase Profiling Service; Thermofisher – experimental details of these assays can be found here: https://www.thermofisher.com/uk/en/home/industrial/pharma-biopharma/drug-discovery-development/target-and-lead-identification-and-validation/kinasebiology/kinase-activity-assays.html. The tree represention in KinMap[59] generated courtesy of Cell Signaling Technology, Inc. (www.cellsignal.com). mTORC1 (mTOR/RAPTOR/LST8) protein complex and ATM kinase and substrates were produced as previously described[57],[60]. Screening of 1938 was conducted using SuperSep Phos-Tag 50 μmol/l 100 x 100 x 6.6 mm 17-well (192-18001/199-18011) gels. For ATM assays, 100 nM ATM was incubated for 30 min at 30°C with 5 μM GST-p53 and 1 mM ATP, in the absence or presence of 200 μM 1938 in ATM Kinase Buffer (50 mM HEPES pH 7.5, 100 mM NaCl, 10% glycerol, 2 mM […], 5 mM MgCl2). As a positive control for ATM activation, the same reaction was carried out with 100 nM ATM/5 μM GST-p53/1 mM ATP in the presence of 100 nM Mre11-Rad50-Nbs1 (MRN) complex, a known activator of ATM[61]. For mTORC1 assays, 50 nM mTORC1 complex (mTOR/LST8/RAPTOR) was incubated for 3 h at 30°C with 15 μM 4E-BP1, 10 mM MgCl2 and 250 μM ATP, in the absence or presence of 200 μM 1938. As a ‘positive’ control, a higher concentration (150 nM) of mTORC1 complex (mTOR/LST8/RAPTOR) was incubated for 3 h at 30°C with 15 μM 4E-BP1, 10 mM MgCl2 and 250 μM ATP. Kinase reactions were quenched by addition of SDS-PAGE Loading Buffer (as per manufacturer’s instructions) and freezing at -20°C before being run on the Phos-tag gels at 150 V for 90 min. Gels were then stained using InstantBlue™ Coomassie, and quantified using BioRad Image Lab Software. Kinase assays were carried out in triplicate.

[2] = biological target: T2, ULK2 (Homo sapiens, UniProt Q8IYT8); experiment: SelectScreen LanthaScreen Binding; settings: 1000 nM
T2 sequence (Q8IYT8 1-1036): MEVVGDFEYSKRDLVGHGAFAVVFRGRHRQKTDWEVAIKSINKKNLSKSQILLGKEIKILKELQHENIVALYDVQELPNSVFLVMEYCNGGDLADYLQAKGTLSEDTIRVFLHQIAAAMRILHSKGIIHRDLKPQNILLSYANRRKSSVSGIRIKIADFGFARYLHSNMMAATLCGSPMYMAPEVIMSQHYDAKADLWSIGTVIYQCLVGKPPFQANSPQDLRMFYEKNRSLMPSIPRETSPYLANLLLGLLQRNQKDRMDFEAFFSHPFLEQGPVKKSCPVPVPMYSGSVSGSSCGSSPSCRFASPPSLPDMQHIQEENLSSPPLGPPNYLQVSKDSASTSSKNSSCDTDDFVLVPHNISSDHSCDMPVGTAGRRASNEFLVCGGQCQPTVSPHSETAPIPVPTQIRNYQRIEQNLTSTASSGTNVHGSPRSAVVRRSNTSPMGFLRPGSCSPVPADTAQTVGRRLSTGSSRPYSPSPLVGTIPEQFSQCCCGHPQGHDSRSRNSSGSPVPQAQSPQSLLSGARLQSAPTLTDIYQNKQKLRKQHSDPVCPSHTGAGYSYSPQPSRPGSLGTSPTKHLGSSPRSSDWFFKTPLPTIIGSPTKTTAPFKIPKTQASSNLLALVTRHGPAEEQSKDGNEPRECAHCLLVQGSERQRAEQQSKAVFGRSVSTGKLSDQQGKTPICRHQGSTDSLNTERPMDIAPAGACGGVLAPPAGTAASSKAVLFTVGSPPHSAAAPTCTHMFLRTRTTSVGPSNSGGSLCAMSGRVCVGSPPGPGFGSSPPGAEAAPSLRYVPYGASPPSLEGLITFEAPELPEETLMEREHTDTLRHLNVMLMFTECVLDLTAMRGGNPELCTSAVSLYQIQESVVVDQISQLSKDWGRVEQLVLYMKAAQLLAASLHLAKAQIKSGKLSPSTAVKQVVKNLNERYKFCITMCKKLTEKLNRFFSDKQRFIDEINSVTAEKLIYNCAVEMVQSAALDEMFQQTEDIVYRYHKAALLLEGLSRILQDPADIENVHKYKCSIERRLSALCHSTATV
Description: as §1

**Q.** How did the “% Displacement Point 1” value [1] turn out when `CCN1CCN(c2ccc(Nc3cc(Nc4cccc5c4N(C(C)=O)CC5)ccn3)cc2)CC1` [Compound 1938] was run?
**A.** 19%

**Q.** What about the “% Displacement Point 2” value [1] of the same molecule?
**A.** 22%

**Q.** What about the “% Displacement mean” value [1] of the same molecule?
**A.** 21%

**Q.** And the “% Displacement Point 1” value [2]?
**A.** 3%

**Q.** And the “% Displacement Point 2” value [2]?
**A.** -0.488%

**Q.** What about the “% Displacement mean” value [2] of the same molecule?
**A.** 1.23%
